In patent publication US20250282774A1, “FUSED RING COMPOUND” (SHANGHAI SHIJIANG BIOTECHNOLOGY CO., LTD., priority 2022, published 2025):

Experiments:
mPTP-inactive Daoy cell = test: Cell viability (Promega CellTiter-Glo), mPTP-inactive Daoy cell; assay type: cell-based; conditions: Homo sapiens, Daoy cell transfected with PPIF shRNA vector
sh-DNMT1 NCI-H82 cell = test: Cell viability (Promega CellTiter-Glo), sh-DNMT1 NCI-H82 cell; assay type: cell-based; conditions: Homo sapiens, NCI-H82 cell with DNMT1 knocked down
Excerpt: (§1) The expression of NNMT protein in NCI-H82 cell was overexpressed by inserting the NNMT gene into NCI-H82 cell using a viral vector, and the NNMT protein-overexpressing NCI-H82 cell (ov-NNMT NCI-H82 cell) was obtained. The expression of DNMT1 in NCI-H82 cell was knocked down by transfecting shRNA (the nucleotide sequence of shRNA was […] (SEQ ID No: 3)) using a viral vector, and the NCI-H82 cell with low expression of DNMT1 protein (sh-DNMT1 NCI-H82 cell) was obtained. The control NCI-H82 cell (Con-NCI-H82 cell) was obtained by transfecting NCI-H82 cell with empty virus vector without carrying NNMT gene and shRNA. The expressing content of NNMT protein and DNMT1 protein in the Con-NCI-H82 cell, the expressing content of NNMT protein in the ov-NNMT NCI-H82 cell, and the expressing content of DNMT1 protein in the sh-DNMT1 NCI-H82 cell were detected using Western Blot assay (as shown in FIG. 3 and FIG. 4), it could be seen from FIG. 3 and FIG. 4 that the NNMT protein was overexpressed in the ov-NNMT NCI-H82 cell and the expression of DNMT1 protein was knocked down (i.e, low expression) in the sh-DNMT1 NCI-H82 cell compared with the expression level of NNMT protein and DNMT1 protein in the Con-NCI-H82 cell.

mPTP-active Daoy cell = test: Cell viability (Promega CellTiter-Glo), mPTP-active Daoy cell; assay type: cell-based; conditions: Homo sapiens, Daoy cell transfected with empty virus vector
ov-NNMT NCI-H82 cell = test: Cell viability (Promega CellTiter-Glo), ov-NNMT NCI-H82 cell; assay type: cell-based; conditions: Homo sapiens, NCI-H82 cell overexpressing NNMT protein
Excerpt: as §1

Con-NCI-H82 cell = test: Cell viability (Promega CellTiter-Glo), Con-NCI-H82 cell; assay type: cell-based; conditions: Homo sapiens, NCI-H82 cell transfected with empty virus vector
Excerpt: as §1

[1] = system: Daoy cell transfected with empty virus vector without carrying shRNA; test: Mitochondria membrane potential difference by TMRM in Daoy cell transfected with empty virus vector (Con shRNA); assay type: cell-based, human; conditions: H2O2 +, CsA −
[2] = system: Daoy cell transfected with virus vector carrying shRNA that could specifically induce the degradation of PPIF mRNA; test: Mitochondria membrane potential difference by TMRM in Daoy cell transfected with PPIF shRNA; assay type: cell-based, human; conditions: H2O2 +, CsA −
Daoy cell = test: Mitochondria membrane potential difference by TMRM in Daoy cell (mPTP activity); assay type: cell-based, human; conditions: H2O2 +, CsA −
Excerpt: For cells with active mitochondria permeability transition pore, adding peroxide (such as H2O2) could increase the activity of mitochondria permeability transition pore, resulting in a decrease in mitochondria membrane potential.

SMILES	IC50 (sh-DNMT1 NCI-H82 cell) [µM]	IC50 (ov-NNMT NCI-H82 cell) [µM]	IC50 (Con-NCI-H82 cell) [µM]	IC50 (mPTP-inactive Daoy cell) [nM]	IC50 (mPTP-active Daoy cell) [µM]	Relative TMRM signal intensity (%), mean value [1] [%]	Relative TMRM signal intensity (%), mean value [2] [%]	Relative TMRM signal intensity (%) in Daoy cell after different treatments, mean value (Daoy cell) [%]
COc1ccc2cc3[n+](cc2c1N1CCC(F)(F)CC1)CCc1cc2c(cc1-3)OCO2 [Compound AB35556]	9.86	5.85	2.57	3140	7.31	–	–	–
COc1ccc2cc3[n+](cc2c1N1CCCCCC1)CCc1cc2c(cc1-3)OCO2 [Compound AB36413]	1.58	0.85	0.29	320	1.26	–	–	–
COc1ccc2cc3[n+](cc2c1N1CCCCC1C)CCc1cc2c(cc1-3)OCO2 (stereo not drawn) [Compound AB35528]	1.48	0.68	0.27	420	1.49	–	–	–
COc1ccc2cc3[n+](cc2c1N1CCC2(CCO2)CC1)CCc1cc2c(cc1-3)OCO2 [Compound AB35575]	14.8	8.96	4.07	5850	26.7	–	–	–
COc1ccc2cc3[n+](cc2c1N1CCC(F)CC1)CCc1cc2c(cc1-3)OCO2 [Compound AB35551]	5.96	3.48	1.57	1970	5.82	–	–	–
COc1ccc2cc3[n+](cc2c1N1CCOC(C)C1)CCc1cc2c(cc1-3)OCO2 (stereo not drawn) [Compound AB35540]	19	10.4	5.05	5850	15.7	–	–	–
OO [Compound H2O2, H2O2]	–	–	–	–	–	79	95	82
COc1ccc2cc3[n+](cc2c1N1CCCC(C)C1)CCc1cc2c(cc1-3)OCO2 (stereo not drawn) [Compound AB35530]	1.76	0.72	0.32	550	2.43	–	–	–
COc1ccc2cc3[n+](cc2c1N1CCCCC1)CCc1cc2c(cc1-3)OCO2 [Compound AB36492]	1.46	0.68	0.21	460	1.65	–	–	–
COc1ccc2cc3[n+](cc2c1N1CCCC1)CCc1cc2c(cc1-3)OCO2 [Compound AB35555]	2.19	1.02	0.37	450	1.58	–	–	–

Second part, led by results:

IC50 (sh-DNMT1 NCI-H82 cell) [µM]	IC50 (ov-NNMT NCI-H82 cell) [µM]	IC50 (Con-NCI-H82 cell) [µM]	SMILES	IC50 (mPTP-inactive Daoy cell) [nM]	IC50 (mPTP-active Daoy cell) [µM]	Relative TMRM signal intensity (%), mean value [1] [%]	Relative TMRM signal intensity (%), mean value [2] [%]	Relative TMRM signal intensity (%) in Daoy cell after different treatments, mean value (Daoy cell) [%]
2.54	0.89	0.45	COc1ccc2cc3[n+](cc2c1N1CCC(C(F)(F)F)CC1)CCc1cc2c(cc1-3)OCCO2 [Compound SJ0010]	2090	6.33	–	–	–
1.33	0.55	0.18	COc1ccc2cc3[n+](cc2c1N1CCC(C)CC1)CCc1cc2c(cc1-3)OCCO2 [Compound SJ0009]	470	2.06	–	–	–
2.96	1.94	0.74	COc1ccc2cc3[n+](cc2c1N1CCC(Cl)CC1)CCc1cc2c(cc1-3)OCO2 [Compound SJ0004]	2410	7.45	–	–	–
2.03	0.88	0.32	COc1ccc2cc3[n+](cc2c1N1CCC(C(F)(F)F)CC1)CCc1cc2c(cc1-3)OCO2 [Compound SJ0002]	1560	5.13	–	–	–
1.12	0.58	0.14	COc1ccc2cc3[n+](cc2c1N1CCC(C)CC1)CCc1cc2c(cc1-3)OCO2 [Compound SJ0001]	520	1.35	–	–	–
3.88	2.35	0.97	COc1ccc2cc3[n+](cc2c1N1CCC(Cl)CC1)CCc1cc2c(cc1-3)OCCO2 [Compound SJ0012]	2080	6.96	–	–	–
